Reference: PMC6234764, “First Insights Into Within Host Translocation of the Bacillus cereus Toxin Cereulide Using a Porcine Model” (Frontiers in Microbiology, 2018)

Columns and labels:
piglets = assay: Blood analysis: hematology and clinical chemistry; type: in vivo, pig
Protocol: A total of four experiments, each including four treated animals and one control pig, was performed to investigate the action of cereulide on piglets after oral intake of cereulide. Pigs were either challenged orally with a single dose (acute trials) or with daily over a period of 7 days (chronic trial) (see Table 1). One hour before cereulide toxin administration blood samples were taken by puncturing the anterior Vena cava and piglets were weighed for calculation of the cereulide concentration (t = 0 h). In the intoxication experiment with 150 μg kg^-1 blood samples were taken 68 h before the experiment to reduce the distress for the animals at the start day of the experiments. Blood-chemical, immunological, and histological analyses of selected organs as well as quantification of cereulide in organs, tissues, urine and feces were carried out as detailed below.
After oral administration of cereulide, piglets were monitored for unusual behavior and examined physically with special respect on rectal body temperature as well as pulse and respiration rate, every 2–3 h. Blood samples were taken from the Vena cava cranialis. Urine and feces were collected during the whole experiment and stored at -80°C. After the experiment pigs were anaesthetized by intramuscular injection of a bolus of ketamine (10 mg kg^-1) and azaperone (1.3 mg kg^-1). When sedation was deep enough cerebrospinal fluid (liquor) was taken by lumbar puncture. Finally, pigs were euthanized by intracardial injection of T61®. Animals were then necropsied and parts of the following organs, tissues or body fluids were taken for SIDA-MS analysis: liver, lung, heart, kidney, brain, spleen, small and large intestine, lymph nodes, gastric as well as intestinal contents, skeletal muscle, and abdominal and subcutaneous fat. Samples of liver, lung, heart, kidney, brain, spleen, small, and large intestine were collected for histological analysis.
One milliliter EDTA-stabilized blood and 3 mL heparin-stabilized blood (worked up to serum) were screened for erythrocyte number, hemoglobin, hematocrit, mean cellular volume (MCV), mean cellular hemoglobin (MCH), mean cellular hemoglobin concentration (MCHC), leukocyte number, mean peroxidase index (MPXI), numbers of monocytes, lymphocytes, eosinophils, basophils, lymphoblasts, juvenile and segmented neutrophils, as well as glucose, urea, creatinine, total protein, aspartate amino transferase (AST), alanine amino transferase (ALT), […] (GLDH), gamma glutamyl transferase (GGT), bile acid, lipase, creatine kinase, sodium, potassium, chloride, calcium, and phosphorus at the central diagnostic unit of the University of Veterinary Medicine Vienna.

[1] = system: Peripheral blood mononuclear cells (PBMC); assay: Flow cytometric analysis of PBMC populations; type: in vivo, pig
Protocol: Peripheral blood mononuclear cells (PBMC) were isolated from heparin-stabilized blood samples (5–8 mL) using Ficoll-Hypaque (PAA, Austria) density centrifugation as described elsewhere ([Saalmüller et al., 1987]). For flow cytometric (FCM) analysis PMBCs were labeled with monoclonal antibodies as indicated in Supplementary Table S1 and stained with the respective isotype-specific conjugates. For analysis of regulatory T cells, cells were fixed and permeabilized by using Foxp3 Staining Buffer Set (eBioscience) in accordance with the manufacturer‘s instructions or for B cells by a FormSap-F&P permeabilization and fixation protocol as described previously ([Gerner et al., 2008]; [Käser et al., 2008]). Samples were analyzed immediately after the final washing steps. Flow cytometric analyses were performed on a FACSCantoII (BD Bioscience). 50,000 events were collected for each sample. Data were analyzed using FACSDiva software 6.1.3 (BD Bioscience) and FlowJo software 7.6.
Neg a tiv e c ontr ol - - - - Isoty p co ntr ol Ig G2b 1 Anti-Ig G2b-Alexa488 2 - - Isoty pe cont rol Isoty p co ntr ol Ig G 1 Anti-Ig G1-RPE 3 […]
T he lp er ce lls Anti-CD4 (74-12-4; IgG2b) 4 Anti-Ig G2b-Alexa488 2 - - NK ce lls Anti-CD3 (PPT3; IgG1) 5 Anti-Ig G1-RPE 3 […]

SMILES: CC(C)C[C@H]1OC(=O)[C@H](C(C)C)NC(=O)[C@H](C(C)C)OC(=O)[C@@H](C)NC(=O)[C@@H](CC(C)C)OC(=O)[C@H](C(C)C)NC(=O)[C@H](C(C)C)OC(=O)[C@@H](C)NC(=O)[C@@H](CC(C)C)OC(=O)[C@H](C(C)C)NC(=O)[C@H](C(C)C)OC(=O)[C@@H](C)NC1=O [cereulide]
- Influence on blood cell composition and biochemical markers in blood (piglets; acute trials, samples before and after 8 (only 150 μg kg^-1), 24 and 48 h): no significant influence
- Creatine kinase (CK) (piglets; daily oral dose 10 μg kg^-1, after 3 days, all treated pigs): increase
- AST levels (piglets; daily oral dose 10 μg kg^-1, two out of four treated pigs after 3 and 7 days): elevated
- Creatine kinase (CK) levels (piglets; single oral dose 30 μg kg^-1): increased
- Creatine kinase (CK) levels (piglets; single oral dose 150 μg kg^-1): increased
- Leukocytes (piglets; single oral dose 150 μg kg^-1, all animals): increased levels
- Aspartate aminotransferase (AST) (piglets; single oral dose 150 μg kg^-1, three out of four pigs): transient increase
- Cell composition of PBMCs in comparison to control pigs ([1]; after oral administration of cereulide): no significant changes
- Proportions of blood cell populations ([1]; daily oral dose 10 μg kg^-1 over 7 days): remained stable
